Data reported in ChEMBL document CHEMBL1146889, “Homo-cysteinyl peptide inhibitors of the L1 metallo-beta-lactamase, and SAR as determined by combinatorial library synthesis” (Bioorg Med Chem Lett, 2006).

What was measured:
Beta-lactamase L1 = Beta-lactamase L1 (Stenotrophomonas maltophilia, UniProt P52700); assay: Inhibition of Stenotrophomonas maltophilia L1 metallo beta lactamase
[1] = biological target: Beta-lactamase L1 (Stenotrophomonas maltophilia) (UniProt P52700); assay: Inhibition of Stenotrophomonas maltophilia L1 metallo beta lactamase at 200 uM
Chain of Beta-lactamase L1 (Stenotrophomonas maltophilia) (P52700 34-290 limits assumed): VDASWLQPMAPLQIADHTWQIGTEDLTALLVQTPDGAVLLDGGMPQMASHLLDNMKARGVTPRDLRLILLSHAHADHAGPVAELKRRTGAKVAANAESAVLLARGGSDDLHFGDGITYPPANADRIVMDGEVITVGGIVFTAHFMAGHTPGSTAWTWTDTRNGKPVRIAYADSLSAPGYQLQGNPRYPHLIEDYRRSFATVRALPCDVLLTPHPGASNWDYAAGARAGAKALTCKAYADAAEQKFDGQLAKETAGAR

Chain of Beta-lactamase L1 (P52700 whole entry): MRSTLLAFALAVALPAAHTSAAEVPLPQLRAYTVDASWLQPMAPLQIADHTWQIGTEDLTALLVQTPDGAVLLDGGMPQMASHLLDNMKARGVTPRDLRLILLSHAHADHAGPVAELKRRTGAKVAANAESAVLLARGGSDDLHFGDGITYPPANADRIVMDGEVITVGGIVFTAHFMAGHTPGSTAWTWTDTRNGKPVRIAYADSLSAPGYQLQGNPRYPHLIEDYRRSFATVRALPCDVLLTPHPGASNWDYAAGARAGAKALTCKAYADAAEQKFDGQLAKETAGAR

Row | Ki (Beta-lactamase L1) | inhibition [1] | SMILES
1 | 12 nM | 81% | O=C(NC(CCS)C(=O)N[C@H](Cc1ccccc1)C(=O)O)c1cc2cc(F)ccc2[nH]1 (stereo partly specified)
2 | 160 nM | 81% | O=C(NC(CCS)C(=O)N[C@H](Cc1ccccc1)C(=O)O)c1ccc(-c2ccccc2[N+](=O)[O-])o1 (stereo partly specified)
3 | 570 nM | 81% | O=C(NC(CCS)C(=O)N[C@H](Cc1ccccc1)C(=O)O)c1cc2cc(O)ccc2[nH]1 (stereo partly specified)
4 | 350 nM | 81% | O=C(Cc1ccc(Br)cc1)NC(CCS)C(=O)N[C@H](Cc1ccccc1)C(=O)O (stereo partly specified)
5 | 290 nM | 81% | O=C(COc1cccc2ccccc12)NC(CCS)C(=O)N[C@H](Cc1ccccc1)C(=O)O (stereo partly specified)
6 | 290 nM | 81% | O=C(NC(CCS)C(=O)N[C@H](Cc1ccccc1)C(=O)O)c1cc2ccccc2[nH]1 (stereo partly specified)
7 | 390 nM | 81% | CC(=O)Nc1ccc(CC(=O)NC(CCS)C(=O)N[C@H](Cc2ccccc2)C(=O)O)cc1[N+](=O)[O-] (stereo partly specified)
8 | 200 nM | 81% | O=C(NC(CCS)C(=O)N[C@H](Cc1ccccc1)C(=O)O)c1cc2cc(Cl)ccc2[nH]1 (stereo partly specified)
